According to patent publication US20210382058A1, “PATIENT SELECTION FOR TREATMENT OF MYC POSITIVE CANCERS WITH INDENOISOQUINOLINES” (Purdue Research Foundation, priority 2020, published 2021):
Like-named read-outs stand apart in the source and are kept apart here.

Legend:
[1] = tested on: MYC protein expression in MCF-7 breast cancer cells; assay: Western blotting of MYC protein level in MCF-7 cells; type: cell-based, human
Method in brief: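 Immunoblotting with ECL detection quantified MYC, with GAPDH (1:2000) as reference and anti-MYC at 1:1000.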

[2] = tested on: NCI-60 cancer cell lines; assay: NCI-60 cancer cell line drug screen (GI50, MGM); type: cell-based, human; settings: Homo sapiens; for GI50: read-out: Antiproliferative Activities [GI50 (μM)]; for mean GI50 across NCI-60 panel (MGM): average of GI50 values across the entire panel of NCI-60 cancer cell lines
Procedure: Cancer cells were incubated with the test compounds at five concentrations ranging from 100 μM to 10 nM for 48 h. […] The approximate average of GI50 values across the entire panel of NCI-60 cancer cell lines for each compound was recorded as the MGM value.

[3] = target: T1, human topoisomerase I (Homo sapiens, UniProt P11387); settings: relative topoisomerase I inhibition levels, previously determined, six levels (0 - 5, +++++ = 5); cited from earlier work
T1 sequence (P11387 1-765): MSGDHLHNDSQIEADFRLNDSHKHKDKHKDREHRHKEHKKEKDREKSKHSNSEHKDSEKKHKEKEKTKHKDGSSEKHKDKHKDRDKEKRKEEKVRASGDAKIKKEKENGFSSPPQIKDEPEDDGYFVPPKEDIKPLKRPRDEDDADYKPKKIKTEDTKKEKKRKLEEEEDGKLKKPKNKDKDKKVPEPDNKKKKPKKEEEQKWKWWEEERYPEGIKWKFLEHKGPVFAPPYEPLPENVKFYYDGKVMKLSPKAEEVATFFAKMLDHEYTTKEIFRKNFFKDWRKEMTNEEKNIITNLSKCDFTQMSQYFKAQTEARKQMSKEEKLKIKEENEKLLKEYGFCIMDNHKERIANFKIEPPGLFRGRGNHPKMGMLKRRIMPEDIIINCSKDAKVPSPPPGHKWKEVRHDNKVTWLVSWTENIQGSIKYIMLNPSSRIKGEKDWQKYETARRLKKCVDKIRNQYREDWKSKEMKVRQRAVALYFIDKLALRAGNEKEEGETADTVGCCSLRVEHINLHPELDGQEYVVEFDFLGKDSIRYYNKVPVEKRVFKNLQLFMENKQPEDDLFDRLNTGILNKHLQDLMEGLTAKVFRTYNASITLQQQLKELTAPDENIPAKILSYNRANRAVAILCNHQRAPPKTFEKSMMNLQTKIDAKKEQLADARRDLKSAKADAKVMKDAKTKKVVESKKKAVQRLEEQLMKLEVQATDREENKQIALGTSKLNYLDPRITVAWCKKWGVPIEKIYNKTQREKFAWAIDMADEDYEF

[4] = A549, Non-Small Cell Lung Cancer, A549/ATCC
[5] = COLO 205, Colon Cancer, COLO 205
[6] = DU-145, Prostate Cancer, DU-145
[7] = EKVX, Non-Small Cell Lung Cancer, EKVX
[8] = HCC 2998, Colon Cancer, HCC-2998
[9] = HOP-62, Non-Small Cell Lung Cancer, HOP-62
[10] = HOP-92, Non-Small Cell Lung Cancer, HOP-92
[11] = Hs-578T, Breast Cancer, HS 578T
[12] = MDA-MB-231, Breast Cancer, MDA-MB-231/ATCC
[13] = MDA-MB-435, Melanoma, MDA-MB-435
[14] = NCI-H23, Non-Small Cell Lung Cancer, NCI-H23
[15] = NCI-H226, Non-Small Cell Lung Cancer, NCI-H226
[16] = NCI-H322M, Non-Small Cell Lung Cancer, NCI-H322M
[17] = NCI-H460, Non-Small Cell Lung Cancer, NCI-H460
[18] = NCI-H522, Non-Small Cell Lung Cancer, NCI-H522
[19] = OVCAR-3, Ovarian Cancer, OVCAR-3
[20] = OVCAR-4, Ovarian Cancer, OVCAR-4
[21] = OVCAR-5, Ovarian Cancer, OVCAR-5
[22] = OVCAR-8, Ovarian Cancer, OVCAR-8
[23] = SK-OV-3, Ovarian Cancer, SK-OV-3

COc1cnc2c(c1)C(=O)c1c-2n(CCCN2CCCC2)c(=O)c2cc([N+](=O)[O-])ccc12 [Compound 9]
MYC-inhibitory effect (MYC protein, western blot) ([1]; MCF-7, 0.5, 1, 2, and 4 μM, 24 h): clear MYC-inhibitory effect | GI50 ([2]; 786-0, Renal Cancer, 786-0): 0.03 µM | GI50 [2, 4]: 0.05 µM | GI50 ([2]; ACHN, Renal Cancer, ACHN): < 0.01 µM | GI50 ([2]; BT-549, Breast Cancer, BT-549): 0.35 µM | GI50 ([2]; CAKI-1, Renal Cancer, CAKI-1): < 0.01 µM | GI50 ([2]; CCRF-CEM, Leukemia, CCRF-CEM): < 0.01 µM | GI50 [2, 5]: 0.04 µM | GI50 [2, 6]: 0.02 µM | GI50 [2, 7]: 0.3 µM | GI50 [2, 8]: 0.16 µM | GI50 ([2]; HCT-15, Colon Cancer, HCT-15): 0.06 µM | GI50 ([2]; HCT-116, Colon Cancer, HCT-116): < 0.01 µM | GI50 ([2]; HL-60, Leukemia, HL-60(TB)): 0.03 µM | GI50 [2, 9]: < 0.01 µM | GI50 [2, 10]: 0.55 µM | GI50 ([2]; HT-29, Colon Cancer, HT29): 0.02 µM | GI50 [2, 11]: 1.91 µM | GI50 ([2]; IGROV-1, Ovarian Cancer, IGROV1): 0.02 µM | GI50 ([2]; K562, Leukemia, K-562): 0.02 µM | GI50 ([2]; KM12, Colon Cancer, KM12): 0.14 µM | GI50 ([2]; LOX IMVI, Melanoma, LOX IMVI): < 0.01 µM | GI50 ([2]; Leukemia, SR): < 0.01 µM | GI50 ([2]; MCF7, Breast Cancer, MCF7): < 0.01 µM | GI50 [2, 12]: 0.68 µM | GI50 [2, 13]: 0.06 µM | GI50 ([2]; MDA-MB-468, Breast Cancer, MDA-MB-468): 0.03 µM | GI50 ([2]; MOLT-4, Leukemia, MOLT-4): < 0.01 µM | GI50 ([2]; Malme-3M, Melanoma, MALME-3M): 0.06 µM | GI50 ([2]; Melanoma, M14): < 0.01 µM | GI50 [2, 14]: 0.03 µM | GI50 [2, 15]: 0.1 µM | GI50 [2, 16]: 0.05 µM | GI50 [2, 17]: < 0.01 µM | GI50 [2, 18]: 0.06 µM | GI50 [2, 19]: 0.06 µM | GI50 [2, 20]: 0.08 µM | GI50 [2, 21]: 0.16 µM | GI50 [2, 22]: 0.09 µM | GI50 ([2]; Ovarian Cancer, NCl/ADR-RES): 0.03 µM | GI50 ([2]; Prostate Cancer, PC-3): 0.07 µM | GI50 ([2]; RPMI-8226, Leukemia, RPMI-8226): 0.04 µM | GI50 ([2]; RXF 393, Renal Cancer, RXF 393): 0.06 µM | GI50 ([2]; Renal Cancer, U0-31): < 0.01 µM | GI50 ([2]; SF-268, CNS Cancer, SF-268): 0.02 µM | GI50 ([2]; SF-295, CNS Cancer, SF-295): < 0.01 µM | GI50 ([2]; SF-539, CNS Cancer, SF-539): 0.03 µM | GI50 ([2]; SK-MEL-2, Melanoma, SK-MEL-2): 1.01 µM | GI50 ([2]; SK-MEL-5, Melanoma, SK-MEL-5): 0.07 µM | GI50 ([2]; SK-MEL-28, Melanoma, SK-MEL-28): 10.6 µM | GI50 [2, 23]: 0.03 µM | GI50 ([2]; SN12C, Renal Cancer, SN12C): 0.04 µM | GI50 ([2]; SNB-19, CNS Cancer, SNB-19): 0.04 µM | GI50 ([2]; SNB-75, CNS Cancer, SNB-75): 0.05 µM | GI50 ([2]; SW-620, Colon Cancer, SW-620): < 0.01 µM | GI50 ([2]; T47D, Breast Cancer, T-47D): 0.02 µM | GI50 ([2]; TK-10, Renal Cancer, TK-10): 0.37 µM | GI50 ([2]; U-251, CNS Cancer, U251): 0.01 µM | GI50 ([2]; UACC-62, Melanoma, UACC-62): 0.02 µM | GI50 ([2]; UACC-257, Melanoma, UACC-257): 0.18 µM | mean GI50 across NCI-60 panel (MGM) [2]: 0.045 µM | Top1 Inhibiton [3]: ++ (medium inhibition, ++, MYC expression inhibited at 2.0 μM, or no clear dose-dependent MYC inhibition)

COc1ccc2c(c1)C(=O)c1c-2n(CCCN2CCOCC2)c(=O)c2ccccc12 [Compound 19]
minimal effective concentration ([1]; Homo sapiens, MCF7, western blotting, MCF-7 cells, 0.5, 1, 2, and 4 μM, 24 hours, read-out: MYC Inhibition): 2 µM | GI50 ([2]; 786-0, Renal Cancer, 786-0): 1.78 µM | GI50 ([2]; A498, Renal Cancer, A498): 1.64 µM | GI50 [2, 4]: 1.96 µM | GI50 ([2]; ACHN, Renal Cancer, ACHN): 1.67 µM | GI50 ([2]; BT-549, Breast Cancer, BT-549): 4.11 µM | GI50 ([2]; CAKI-1, Renal Cancer, CAKI-1): 3.17 µM | GI50 ([2]; CCRF-CEM, Leukemia, CCRF-CEM): 1.57 µM | GI50 [2, 5]: 1.74 µM | GI50 [2, 6]: 2.31 µM | GI50 [2, 7]: 4.91 µM | GI50 [2, 8]: 3.44 µM | GI50 ([2]; HCT-15, Colon Cancer, HCT-15): 2.9 µM | GI50 ([2]; HCT-116, Colon Cancer, HCT-116): 1.27 µM | GI50 ([2]; HL-60, Leukemia, HL-60(TB)): 4.28 µM | GI50 [2, 9]: 1.41 µM | GI50 [2, 10]: 4.47 µM | GI50 ([2]; HT-29, Colon Cancer, HT29): 2.48 µM | GI50 [2, 11]: 8.95 µM | GI50 ([2]; K562, Leukemia, K-562): 5.13 µM | GI50 ([2]; KM12, Colon Cancer, KM12): 3.8 µM | GI50 ([2]; LOX IMVI, Melanoma, LOX IMVI): 1.34 µM | GI50 ([2]; Leukemia, SR): 0.29 µM | GI50 ([2]; MCF7, Breast Cancer, MCF7): 0.2 µM | GI50 [2, 12]: 11.2 µM | GI50 [2, 13]: 4.67 µM | GI50 ([2]; MOLT-4, Leukemia, MOLT-4): 0.87 µM | GI50 ([2]; Malme-3M, Melanoma, MALME-3M): 4.49 µM | GI50 ([2]; Melanoma, M14): 2.85 µM | GI50 [2, 14]: 3.1 µM | GI50 [2, 15]: 2.79 µM | GI50 [2, 16]: 5.44 µM | GI50 [2, 17]: 0.44 µM | GI50 [2, 18]: 1.06 µM | GI50 [2, 19]: 2.7 µM | GI50 [2, 20]: 3.13 µM | GI50 [2, 21]: 6.31 µM | GI50 [2, 22]: 3.11 µM | GI50 ([2]; Ovarian Cancer, NCl/ADR-RES): 3.14 µM | GI50 ([2]; Prostate Cancer, PC-3): 19.5 µM | GI50 ([2]; RPMI-8226, Leukemia, RPMI-8226): 1.85 µM | GI50 ([2]; RXF 393, Renal Cancer, RXF 393): 7.16 µM | GI50 ([2]; Renal Cancer, U0-31): 0.42 µM | GI50 ([2]; SF-268, CNS Cancer, SF-268): 1.75 µM | GI50 ([2]; SF-295, CNS Cancer, SF-295): 1.27 µM | GI50 ([2]; SF-539, CNS Cancer, SF-539): 1.96 µM | GI50 ([2]; SK-MEL-2, Melanoma, SK-MEL-2): 19.5 µM | GI50 ([2]; SK-MEL-5, Melanoma, SK-MEL-5): 1.5 µM | GI50 ([2]; SK-MEL-28, Melanoma, SK-MEL-28): 8.03 µM | GI50 [2, 23]: 2.67 µM | GI50 ([2]; SN12C, Renal Cancer, SN12C): 4.1 µM | GI50 ([2]; SNB-19, CNS Cancer, SNB-19): 2.13 µM | GI50 ([2]; SNB-75, CNS Cancer, SNB-75): 3.63 µM | GI50 ([2]; SW-620, Colon Cancer, SW-620): 1.68 µM | GI50 ([2]; T47D, Breast Cancer, T-47D): 1.07 µM | GI50 ([2]; TK-10, Renal Cancer, TK-10): 4.63 µM | GI50 ([2]; U-251, CNS Cancer, U251): 1.72 µM | GI50 ([2]; UACC-62, Melanoma, UACC-62): 1.58 µM | GI50 ([2]; UACC-257, Melanoma, UACC-257): 6.6 µM | mean GI50 across NCI-60 panel (MGM) [2]: 2.57 µM | Top1 Inhibiton [3]: +++ (strong inhibition, +++, MYC expression inhibited at 0.5 to 1.0 μM)
